We go through four molecules from ChEMBL document CHEMBL3991944, “Enantiomers of spiro-oxindole compounds and their uses as therapeutic agents” (2013).

Usually solubility stands for how much of the substance goes into solution per volume. Read a high solubility as a readily soluble substance.

Converted amounts (≈) assume the structure as drawn. The source made the active and inactive calls.

Series [1] concerns Rattus norvegicus. Briefly: Analgesic activity in rat model of chronic constriction injury-induced neuropathic pain assessed as reversal of pain response at 2% (w/v) administered topically as ointment measured upto 1 hr by electrovonfrey anesthesiometry. It is filed as functional.
For series [2], the system named is Rattus norvegicus. Briefly: Analgesic activity in rat model of CFA-induced chronic inflammatory pain assessed as reduction in nociceptive threshold at 200 mg/kg, po by Von Frey filament assay. The series is classed as functional, organism-based.
Series [3] deals with Rattus norvegicus. Briefly: Drug level in rat model of CFA-induced chronic inflammatory pain assessed as high plasma concentration at 200 mg/kg, po […]. The note with it: in vivo. It is filed as ADME, organism-based.
The target in series [4] is Sodium channel protein type 9 subunit alpha (Homo sapiens) (UniProt Q15858). Particulars: HEK293.
Chain of Sodium channel protein type 9 subunit alpha (Homo sapiens) (Q15858 whole entry, looked up): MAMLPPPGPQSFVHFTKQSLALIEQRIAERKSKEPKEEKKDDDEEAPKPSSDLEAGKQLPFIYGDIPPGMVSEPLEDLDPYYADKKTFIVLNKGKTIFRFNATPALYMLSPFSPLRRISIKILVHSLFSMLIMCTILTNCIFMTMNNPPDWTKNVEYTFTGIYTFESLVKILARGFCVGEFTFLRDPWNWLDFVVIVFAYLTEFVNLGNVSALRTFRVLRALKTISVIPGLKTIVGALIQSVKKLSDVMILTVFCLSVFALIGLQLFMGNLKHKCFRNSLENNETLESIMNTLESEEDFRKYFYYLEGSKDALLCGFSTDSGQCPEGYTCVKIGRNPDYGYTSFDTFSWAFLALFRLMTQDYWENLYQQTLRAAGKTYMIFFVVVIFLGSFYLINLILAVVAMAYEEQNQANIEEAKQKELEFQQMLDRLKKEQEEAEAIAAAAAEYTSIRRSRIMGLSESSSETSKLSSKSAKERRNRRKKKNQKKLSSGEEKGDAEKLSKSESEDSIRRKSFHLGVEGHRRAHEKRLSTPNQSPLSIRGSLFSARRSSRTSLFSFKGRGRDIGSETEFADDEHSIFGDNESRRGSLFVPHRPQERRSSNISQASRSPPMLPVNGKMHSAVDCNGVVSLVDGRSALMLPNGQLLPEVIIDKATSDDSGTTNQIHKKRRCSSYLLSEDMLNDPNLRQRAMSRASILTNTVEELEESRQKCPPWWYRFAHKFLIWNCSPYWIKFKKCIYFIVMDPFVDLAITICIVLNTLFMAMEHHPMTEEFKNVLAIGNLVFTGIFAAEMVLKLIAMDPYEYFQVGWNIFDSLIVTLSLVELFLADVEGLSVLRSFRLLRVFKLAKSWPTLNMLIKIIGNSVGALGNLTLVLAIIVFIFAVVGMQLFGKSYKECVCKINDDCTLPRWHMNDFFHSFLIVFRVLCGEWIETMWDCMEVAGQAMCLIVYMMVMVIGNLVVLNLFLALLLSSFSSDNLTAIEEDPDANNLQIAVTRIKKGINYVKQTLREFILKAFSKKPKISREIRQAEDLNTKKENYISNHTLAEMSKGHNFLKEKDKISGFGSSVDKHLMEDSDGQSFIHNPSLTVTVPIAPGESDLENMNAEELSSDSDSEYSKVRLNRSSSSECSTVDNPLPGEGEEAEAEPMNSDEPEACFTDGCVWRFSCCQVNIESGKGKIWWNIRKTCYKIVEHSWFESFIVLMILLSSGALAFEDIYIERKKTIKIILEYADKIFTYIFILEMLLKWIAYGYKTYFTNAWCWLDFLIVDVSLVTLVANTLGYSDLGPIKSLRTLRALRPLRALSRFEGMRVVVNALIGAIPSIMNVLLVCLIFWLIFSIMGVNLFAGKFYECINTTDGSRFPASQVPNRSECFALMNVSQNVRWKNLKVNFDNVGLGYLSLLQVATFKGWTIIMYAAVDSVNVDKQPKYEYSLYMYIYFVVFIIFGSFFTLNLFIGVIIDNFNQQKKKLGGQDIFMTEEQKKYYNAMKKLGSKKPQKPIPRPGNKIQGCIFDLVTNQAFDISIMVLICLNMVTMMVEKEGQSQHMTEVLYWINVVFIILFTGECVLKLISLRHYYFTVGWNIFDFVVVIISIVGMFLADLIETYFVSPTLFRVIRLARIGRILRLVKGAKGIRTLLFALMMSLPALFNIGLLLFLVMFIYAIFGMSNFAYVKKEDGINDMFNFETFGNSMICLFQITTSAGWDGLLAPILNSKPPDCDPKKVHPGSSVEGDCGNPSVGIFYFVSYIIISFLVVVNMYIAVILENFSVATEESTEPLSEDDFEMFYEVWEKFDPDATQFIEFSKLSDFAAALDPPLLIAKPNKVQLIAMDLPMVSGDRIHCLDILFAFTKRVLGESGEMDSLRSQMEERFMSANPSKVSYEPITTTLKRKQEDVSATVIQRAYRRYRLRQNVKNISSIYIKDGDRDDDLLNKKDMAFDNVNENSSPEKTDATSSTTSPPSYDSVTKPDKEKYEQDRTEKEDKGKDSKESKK
Series [5] can be described thus: Solubility of the compound in 60:40 of labrasol/transcutol. The series is classed as physicochemical.
Series [6] can be described thus: Solubility of the compound in propylene glycol. The series is classed as physicochemical.
Series [7] can be described thus: Solubility of the compound in labrasol. It is filed as physicochemical.
A short description of series [8]: Solubility of the compound in 60:40 of labrasol/PEG 400. The series is classed as physicochemical.
A short description of series [9]: Solubility of the compound in 60:40 of labrasol/capryol 90. It is filed as physicochemical.
Series [10] in a line: Solubility of the compound in tween 80. It is filed as physicochemical.
Series [11] in a line: Solubility of the compound in capryol 90. The series is classed as physicochemical.
Series [12] can be described thus: Solubility of the compound in PEG 400. The series is classed as physicochemical.
Series [13] relates to Homo sapiens. Briefly: Toxicity in human assessed as change in pulse rate at 4 to 8% (w/w) administered topically as ointment for 21 consecutive days during phase-1 clinical trial. Particulars: topical_or_ocular.
Series [14] deals with Homo sapiens. Briefly: Toxicity in human assessed as mortality at 4 to 8% (w/w) administered topically as ointment for 21 consecutive days during phase-1 clinical trial. The note with it: topical_or_ocular.
In series [15] the test system is Homo sapiens. Briefly: Toxicity in human assessed as change in vital signs at 4 to 8% (w/w) administered topically as ointment for 21 consecutive days during phase-1 clinical trial. Particulars: topical_or_ocular.
For series [16], the system named is Homo sapiens. Briefly: Toxicity in human assessed as decrease in skin irritation at 4 to 8% (w/w) administered topically as ointment for 21 consecutive days measured 7 days post last dose during phase-1 clinical trial. The note with it: topical_or_ocular, 168 h.
Series [17] concerns Rattus norvegicus. Briefly: Analgesic activity in rat model of CFA-induced chronic inflammatory pain assessed as increase in Von Frey mechanical paw withdrawal threshold at 8% (w/v) administered topically by electrovonfrey anesthesiometry relative to baseline. The series is classed as functional.
In series [18] the test system is Homo sapiens. Briefly: Toxicity in human assessed as change in quiescent resting state at 4 to 8% (w/w) administered topically as ointment for 21 consecutive days during phase-1 clinical trial. The note with it: topical_or_ocular.
The subject of series [19] is Homo sapiens. Briefly: Toxicity in human assessed as change in QTc interval at 4 to 8% (w/w) administered topically as ointment for 21 consecutive days during phase-1 clinical trial. The note with it: topical_or_ocular.
Series [20] relates to Homo sapiens. Briefly: Toxicity in human assessed as change in laboratory assessments at 4 to 8% (w/w) administered topically as ointment for 21 consecutive days during phase-1 clinical trial. The note with it: topical_or_ocular.
Series [21] deals with Homo sapiens. Briefly: Toxicity in human assessed as change in physical appearance at 4 to 8% (w/w) administered topically as ointment for 21 consecutive days during phase-1 clinical trial. Particulars: topical_or_ocular.
Series [22] concerns Homo sapiens. Briefly: Toxicity in human assessed as decrease in skin irritation at 4 to 8% (w/w) administered topically as ointment for 21 consecutive days during phase-1 clinical trial. The note with it: topical_or_ocular.
Series [23] relates to Homo sapiens. Briefly: Toxicity in human assessed as serious adverse events at 4 to 8% (w/w) administered topically as ointment for 21 consecutive days during phase-1 clinical trial. The note with it: topical_or_ocular.
For series [24], the system named is Homo sapiens. Briefly: Analgesic activity in human assessed as dental pain relief at 500 mg administered as single dose measured 4 to 12 hrs post dose. The series is classed as functional.
The species entered for series [25] is Homo sapiens. Briefly: Toxicity in human assessed as increase in discomfort at 0.1% compound solution for 4 consecutive days during phase-1 clinical trial.

In the case of `O=C1N(Cc2ccc(C(F)(F)F)o2)c2ccccc2[C@@]12COc1cc3c(cc12)OCO3`, the outcome in the series with Rattus norvegicus [1] was inactive. The result in the series on Rattus norvegicus [2] was Active. For the same molecule, in the series on Rattus norvegicus [3], the Drug uptake result is recorded as “Active”. Further, the Kr in series [4] was > 10 µM.

Turning to `O=C1N(Cc2ccc(C(F)(F)F)o2)c2ccccc2C12COc1cc3c(cc12)OCO3` (configuration not stated), the solubility turned out to be 74.2 mg/mL (≈ 173 mM) in series [5]; 2.7 mg/mL (≈ 6.29 mM) in [6]; 72.5 mg/mL (≈ 169 mM) in series [7]; 70.4 mg/mL (≈ 164 mM) in series [8]; 44.4 mg/mL (≈ 103 mM) in series [9]; 64 mg/mL (≈ 149 mM) in [10]. Moreover, the solubility in series [11] was 18.1 mg/mL (≈ 42.2 mM); in series [12], < 50 mg/mL. Also, the result in the series with Rattus norvegicus [1] was Active. The Kr in [4] was > 10 µM.

As for `O=C1N(Cc2ccc(C(F)(F)F)o2)c2ccccc2[C@]12COc1cc3c(cc12)OCO3` [FUNAPIDE], the Activity entry in the series with Homo sapiens [13] is listed as “Non-Toxic”; with Homo sapiens [14] it was “Non-Toxic”; in the series with Homo sapiens [15] it was “Non-Toxic”; in the series on Homo sapiens [16], “Non-Toxic”; in the series with Rattus norvegicus [17], 45.06 - 45.1%; in the series on Homo sapiens [18], “Non-Toxic”. Further, the Activity result in the series with Homo sapiens [19], with Homo sapiens [20], in the series on Homo sapiens [21], with Homo sapiens [22] and in the series on Homo sapiens [23] was “Non-Toxic” each time. Moreover, the solubility is 186 mg/mL (≈ 433 mM) in series [5]; 231 mg/mL (≈ 538 mM) in [7]; 182 mg/mL (≈ 424 mM) in series [8]; 191 mg/mL (≈ 445 mM) in series [9]; > 123 mg/mL in series [10]; 96 mg/mL (≈ 224 mM) in series [11]. Moreover, the solubility in series [12] is > 55 mg/mL. Further, the outcome in the series with Rattus norvegicus [1], in the series with Rattus norvegicus [2] and with Homo sapiens [24] was Active. In [4], the Kr is > 10 µM.

For `CCCCCCCCCCCCOS(=O)(=O)[O-].[Na+]` [SODIUM LAURYL SULFATE], the Activity result in the series filed under Homo sapiens [25] is “Toxic”.
